Source: patent US10087417B2, “Three-dimensional model of human cortex” (priority 2015, dated 2018)

Key:
Type in all cases: cell-based, human
[1] = test system: neocortical neurons generated from hPSCs
neocortical organoids [2] = conditions: 3 μM cocaine 1 h every other day, days 32-44; measured day 44
Method: Endogenous ROS were measured by incubating neocortical organoids at day 44 with 100 μM 2′,7′-dichlorofluorescein diacetate (DCFH-DA) (Sigma-Aldrich) for 30 min with or without cocaine. The organoids were washed and dissolved in 1% Triton X-100 in PBS. Fluorescence for each sample was measured at an excitation wavelength of 485 nm, and an emission wavelength of 530 nm using a fluorescence microplate reader (Techan Genios). Protein concentration for each sample was determined using the BCA assay (Pierce BCA® Protein Assay Kits; Thermo Scientific), according to manufacturer's instructions. The level of endogenous ROS for each sample was determined by dividing the fluorescence units by the concentration of protein in the lysate.
Taking into consideration that cocaine concentrations in the fetal rat neocortex drop rapidly to negligible levels 1 h after cocaine administration (Lee et al, PLoS Med. 5:e117, 2008), and to create a physiologically-meaningful drug treatment schedule in vitro, the neocortical organoids were exposed to a pharmacologically-relevant dose of cocaine, 3 μM (Kindberg et al, Dis. Model Mech. 7:1397-1405, 2014), for 1 h every other day, from days 32-44. […] In the present model, post-mitotic neurons migrated toward the periphery of the NE. […] The percentage of BrdU^+ cells that expressed TUJ1 was increased by cocaine as compared to control (FIG. 5F and FIG. 6B).

neocortical organoids [3] = conditions: 3 μM cocaine days 32-44; day 66; H9 and H14
Method: Adherent cells in culture were fixed with 4% PFA for 10 min, followed by PBS wash. Neocortical organoids embedded in collagen gel were immersed in 4% PFA for 20 min and cryoprotected in 20% sucrose in PBS for 20 min. Cryostat sections (10 μm) were thaw-mounted onto gelatin-subbed slides. Cells and tissue sections were blocked with 0.2% Triton X-100 in PBS supplemented with 5% BSA and 10% goat serum. Cells were then incubated with primary antibodies in 0.2% Triton X-100 in PBS with 5% BSA and 5% goat serum: rabbit anti-BF1 (1:100; Abcam), rat anti-CD133 (1:100; Millipore), rat anti-CTIP2 (1:50; Abcam), rabbit anti-CUX1 (1:100; Santa Cruz Biotechnology), rabbit anti-EMX1 (1:50; Sigma), mouse anti-gamma-tubulin (1:500; Sigma), rat anti-HOXB4 (1:50; DSHB), mouse anti-Ki67 (1:100; BD Biosciences), rabbit anti-N-cadherin (1:100; Abcam), mouse anti-Nestin (1:50; R&D Systems), mouse anti-NKX2.1 (1:200; Chemicon), mouse anti-PAX6 (1:50; DSHB), rabbit anti-PAX6 (1:300; Covance), rabbit anti-PH3 (1:500; Cell Signaling Technology), mouse anti-Reelin (1:200; Millipore), rabbit anti-TBR1 (1:1000; Abcam), and mouse anti-TUJ1 (1:2,000; Promega). […] TUJ1+ neocortical areas were calculated by normalization of TUJ1+ areas in the neocortical organoids at day 66 (using only sections from the center of each organoid) to organoid size at day 24. […]

neocortical organoids [4] = conditions: 3 μM cocaine days 32-44, days 51-52
Method: (§1) FIGS. 5A-5I is a series of panels showing neurodevelopmental effects of cocaine mediated by CYP3A5. FIG. 5A is an image showing RT-PCR analysis of expression of CYP3A family genes at different stages of neocortical organoid differentiation. “Neocortical organoids” indicates day 44 of differentiation. FIG. 5B is a graph showing ROS formation in the neocortical organoids in presence or absence of cocaine. Neocortical organoids were treated with 3 μM cocaine for 1 h every other day from day 32 to day 44, and endogenous ROS was measured at day 44. n=6. FIG. 5C is a graph showing effects of CYP3A5 or CYP3A43 knockdown on cocaine-induced ROS generation in H9 (dashed line, in the absence of cocaine). n=6. FIG. 5D is a graph showing proliferation of PAX6^+ NE cells of neocortical organoids in the presence or absence of cocaine in H9. Proliferation was examined at day 45 with 1 h BrdU (10 μM) incorporation. n=5. FIG. 5E is a graph showing effects of CYP3A5 or CYP3A43 knockdown on cocaine-induced inhibition of proliferation of PAX6^+ NE cells in H9 (dashed line, in the absence of cocaine). n=7. FIG. 5F is graph showing neuronal differentiation in neocortical organoids in the presence or absence of cocaine in H9. Neuronal differentiation was analyzed 24 h after 1 h BrdU (10 μM) treatment from day 51 to day 52. […] FIG. 5G is a graph showing effects of CYP3A5 or CYP3A43 knockdown on cocaine-induced premature neuronal differentiation in H9 (dashed line, in the absence of cocaine). n=7, FIG. 5H is a graph showing neural tissue development in the presence or absence of cocaine in H9. TUJ1^+ areas in the neocortical organoids were analyzed at day 66. TUJ1^+ areas expressed as percentages of total organoid area on day 24 are shown. n=6. FIG. 5I is a graph showing effects of CYP3A5 or CYP3A43 knockdown on cocaine-induced inhibition of neural tissue development in H9 (dashed line, in the absence of cocaine). n=6. Data are shown as means±SEM. Unpaired two-tailed Student's t-test for H9 and H14 in FIG. 5B, and for FIGS. 5D, 5F, and 5H. […]

[5] = test system: PAX6+ NE cells of neocortical organoids; conditions: 3 μM cocaine 1 h every other day, days 32-44; day 45; H9 and H14
Method: as §1

| Compound | action potentials recorded in current clamp mode [1] | ROS generation in neocortical organoids (neocortical organoids [2]) | development of the TUJ1+ area (neocortical organoids [3]) | migration of BrdU-labeled TUJ1 neurons outwards to the periphery of the NE area (neocortical organoids [4]; BrdU 1 h pulse, 24 h chase) | percentage of BrdU+ cells that expressed TUJ1, compared to control (neocortical organoids [4]; H9 and H14) | proliferation of PAX6+ NE cells [5] |
| --- | --- | --- | --- | --- | --- | --- |
| NC1=N[C@H](O)[C@H]2[C@H]3O[C@]4(O)O[C@@H]([C@@H](O)[C@@]2(N1)[C@@H]4O)[C@]3(O)CO [tetrodotoxin] | blocked |  |  |  |  |  |
| COC(=O)[C@H]1[C@@H](OC(=O)c2ccccc2)C[C@@H]2CC[C@H]1N2C [cocaine] |  | ROS accumulation was observed | significantly inhibited | increased | increased | inhibited |
